Data taken from PubChem BioAssay (NCI).
Values joined by “and” are separate entries in the source; they are usually repeats but may differ in a detail not shown here. Identical values can stand only once.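 Interpolation was linear, between the two tested concentrations surrounding the appropriate level; five concentrations were tested over 48 hours in 96-well plates. The concentration for full growth arrest is given as TGI.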

What was measured:
Assay in all cases: growth of human tumour cells (NCI), 48 h
[1] = test system: RXF-631 renal
[2] = test system: LXFL 529 NSCLC
[3] = test system: XF 498 CNS
[4] = test system: DLD-1 colon
[5] = test system: KM20L2 colon
[6] = test system: DMS 114 small cell lung

| Compound | TGI [1] | TGI [2] | TGI [3] | TGI [4] | TGI [5] | TGI [6] |
| --- | --- | --- | --- | --- | --- | --- |
| CC1(C)CC(=O)C(C(=O)Nc2cccs2)=C(O)C1 | > 100 µM | > 100 µM | 82.7 µM | > 100 µM | > 100 µM |  |
| C/C=C(/CCC1NCCc2c1[nH]c1ccccc21)[Si](C)(C)C (configuration not stated) | > 100 µM and 22.9 µM | 3.25 µM |  | > 100 µM and 21.6 µM | > 100 µM and 11.8 µM |  |
| CC(C)(C)C1CC[C@H]2c3c([nH]c4ccccc34)[C@H]3C(=O)N(c4ccc(F)cc4)C(=O)[C@H]3[C@H]2C1 (some centres not stated) |  | 30.7 µM | 32.3 µM | 37.4 µM | 46.5 µM | 38 µM |
| COc1cc(Nc2nc3cc(C)ccc3nc2-c2ccccc2)cc(OC)c1OC |  | > 100 µM | 42.1 µM |  | > 100 µM | 31.5 µM |
| CCN(CC)c1ccc(Cl)c2c1C(O)(C(C)C)C2(C)C (configuration not stated) |  | 31.5 µM |  | 31.4 µM | 27.8 µM | 36.5 µM |
| CC(=O)Nc1ccc2c(c1)C(=O)c1ccccc1-2 |  | > 100 µM |  | > 100 µM | > 100 µM | > 100 µM |
| CCOC(OCC)(OCC)C(Br)CC (configuration not stated) | > 100 µM | > 100 µM | > 100 µM | > 100 µM | > 100 µM | 25.3 µM |
